Measured values published in the CheMixHub viscosity set.

Assay: xn = mol fraction of the nth substance listed

COC(=O)OC + CO
Details	viscosity [mPa·s]
293.15 K, 101 kPa, x1 = 0.0381	0.5792
293.15 K, 101 kPa, x1 = 0.0818	0.5612
293.15 K, 101 kPa, x1 = 0.1346	0.5507
293.15 K, 101 kPa, x1 = 0.1927	0.5478
293.15 K, 101 kPa, x1 = 0.2626	0.5418
293.15 K, 101 kPa, x1 = 0.348	0.536
293.15 K, 101 kPa, x1 = 0.4533	0.5379
293.15 K, 101 kPa, x1 = 0.5871	0.548
293.15 K, 101 kPa, x1 = 0.7618	0.564
293.15 K, 101.3 kPa, x1 = 0.0537	0.567
293.15 K, 101.3 kPa, x1 = 0.0996	0.551
293.15 K, 101.3 kPa, x1 = 0.2058	0.536
293.15 K, 101.3 kPa, x1 = 0.3135	0.533
293.15 K, 101.3 kPa, x1 = 0.41	0.535
293.15 K, 101.3 kPa, x1 = 0.5086	0.54
293.15 K, 101.3 kPa, x1 = 0.6104	0.545
293.15 K, 101.3 kPa, x1 = 0.7229	0.554
293.15 K, 101.3 kPa, x1 = 0.8338	0.57
293.15 K, 101.3 kPa, x1 = 0.9067	0.586
293.15 K, 101.3 kPa, x1 = 0.9509	0.6
298.15 K, 101 kPa, x1 = 0.0381	0.5373
298.15 K, 101 kPa, x1 = 0.0818	0.5292
298.15 K, 101 kPa, x1 = 0.1346	0.5164
298.15 K, 101 kPa, x1 = 0.1927	0.5119
298.15 K, 101 kPa, x1 = 0.2626	0.5061
298.15 K, 101 kPa, x1 = 0.348	0.503
298.15 K, 101 kPa, x1 = 0.4533	0.5058
298.15 K, 101 kPa, x1 = 0.5871	0.5227
298.15 K, 101 kPa, x1 = 0.7618	0.5374
298.15 K, 101.3 kPa, x1 = 0.0506	0.531
298.15 K, 101.3 kPa, x1 = 0.1042	0.518
298.15 K, 101.3 kPa, x1 = 0.2079	0.502
298.15 K, 101.3 kPa, x1 = 0.3011	0.498
298.15 K, 101.3 kPa, x1 = 0.3963	0.498
298.15 K, 101.3 kPa, x1 = 0.4931	0.504
298.15 K, 101.3 kPa, x1 = 0.589	0.509
298.15 K, 101.3 kPa, x1 = 0.6927	0.517
298.15 K, 101.3 kPa, x1 = 0.8137	0.53
298.15 K, 101.3 kPa, x1 = 0.8997	0.548
298.15 K, 101.3 kPa, x1 = 0.9575	0.566
298.15 K, 101.33 kPa, x1 = 0.0989	0.482
298.15 K, 101.33 kPa, x1 = 0.2009	0.462
298.15 K, 101.33 kPa, x1 = 0.3008	0.458
298.15 K, 101.33 kPa, x1 = 0.4008	0.457
298.15 K, 101.33 kPa, x1 = 0.5	0.462
298.15 K, 101.33 kPa, x1 = 0.6002	0.468
298.15 K, 101.33 kPa, x1 = 0.7016	0.474
298.15 K, 101.33 kPa, x1 = 0.8015	0.496
298.15 K, 101.33 kPa, x1 = 0.9028	0.511
303.15 K, 101 kPa, x1 = 0.0381	0.5011
303.15 K, 101 kPa, x1 = 0.0818	0.4896
303.15 K, 101 kPa, x1 = 0.1346	0.4814
303.15 K, 101 kPa, x1 = 0.1927	0.479
303.15 K, 101 kPa, x1 = 0.2626	0.4723
303.15 K, 101 kPa, x1 = 0.348	0.474
303.15 K, 101 kPa, x1 = 0.4533	0.473
303.15 K, 101 kPa, x1 = 0.5871	0.4884
303.15 K, 101 kPa, x1 = 0.7618	0.5087
303.15 K, 101.3 kPa, x1 = 0.026	0.503
303.15 K, 101.3 kPa, x1 = 0.0707	0.489
303.15 K, 101.3 kPa, x1 = 0.1832	0.469
303.15 K, 101.3 kPa, x1 = 0.2839	0.467
303.15 K, 101.3 kPa, x1 = 0.3823	0.468
303.15 K, 101.3 kPa, x1 = 0.4869	0.472
303.15 K, 101.3 kPa, x1 = 0.5847	0.475
303.15 K, 101.33 kPa, x1 = 0.0989	0.443
303.15 K, 101.33 kPa, x1 = 0.2009	0.432
303.15 K, 101.33 kPa, x1 = 0.3008	0.427
303.15 K, 101.33 kPa, x1 = 0.4008	0.429
303.15 K, 101.33 kPa, x1 = 0.6002	0.439
303.15 K, 101.33 kPa, x1 = 0.7016	0.447
303.15 K, 101.33 kPa, x1 = 0.8015	0.459
303.15 K, 101.33 kPa, x1 = 0.9028	0.48
308.15 K, 101.33 kPa, x1 = 0.0989	0.415
308.15 K, 101.33 kPa, x1 = 0.2009	0.406
308.15 K, 101.33 kPa, x1 = 0.3008	0.404
308.15 K, 101.33 kPa, x1 = 0.4008	0.403
308.15 K, 101.33 kPa, x1 = 0.5	0.406
308.15 K, 101.33 kPa, x1 = 0.6002	0.421
308.15 K, 101.33 kPa, x1 = 0.7016	0.419
308.15 K, 101.33 kPa, x1 = 0.8015	0.433
308.15 K, 101.33 kPa, x1 = 0.9028	0.456
313.15 K, 101 kPa, x1 = 0.0381	0.4382
313.15 K, 101 kPa, x1 = 0.0818	0.4297
313.15 K, 101 kPa, x1 = 0.1346	0.4193
313.15 K, 101 kPa, x1 = 0.1927	0.4192
313.15 K, 101 kPa, x1 = 0.2626	0.4166
313.15 K, 101 kPa, x1 = 0.348	0.4177
313.15 K, 101 kPa, x1 = 0.4533	0.4181
313.15 K, 101 kPa, x1 = 0.5871	0.4314
313.15 K, 101 kPa, x1 = 0.7618	0.4469
323.15 K, 101 kPa, x1 = 0.0381	0.3851
323.15 K, 101 kPa, x1 = 0.0818	0.3724
323.15 K, 101 kPa, x1 = 0.1346	0.3704
323.15 K, 101 kPa, x1 = 0.1927	0.3692
323.15 K, 101 kPa, x1 = 0.2626	0.3685
323.15 K, 101 kPa, x1 = 0.348	0.3693
323.15 K, 101 kPa, x1 = 0.4533	0.3745
323.15 K, 101 kPa, x1 = 0.5871	0.3867
323.15 K, 101 kPa, x1 = 0.7618	0.3997
